Source: patent publication US11484567B2, “Use of immune suppressive domains as medicaments” (iSD Immunotech ApS, priority 2013, dated 2022)

How the values were obtained:
[1] = test system: STING; assay: Pulldown of HA-tagged STING C-terminal domain with biotinylated INF ISD peptide and streptavidin coated beads, immunoblot; assay type: binding
[2] = target: T1, STING (Homo sapiens, UniProt Q86WV6); assay: as above; assay type: binding
T1 construct: the C-terminal domain of STING was expressed with a HA-tag in HEK293 cells; expressed in transfected cells; host or cells: HEK293
T1 sequence (Q86WV6 162-379): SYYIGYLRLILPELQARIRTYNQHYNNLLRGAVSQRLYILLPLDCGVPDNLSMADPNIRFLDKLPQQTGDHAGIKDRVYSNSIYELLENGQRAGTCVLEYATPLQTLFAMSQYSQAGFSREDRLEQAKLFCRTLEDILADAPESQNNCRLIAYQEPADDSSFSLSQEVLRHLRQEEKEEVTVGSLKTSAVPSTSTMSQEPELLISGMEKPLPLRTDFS

[3] = test system: BMDCs; assay: Cytokine release (type I IFN bioassay) from LPS-treated BMDCs pretreated with peptide; assay type: cell-based

GLFGAIAGFIENGWEGCGGEKEKEK [INF ISD peptide]
pulldown of wt STING [1]: readily pulled down | pulldown of STING deletion mutant DN5 (162-N) [2]: readily pulled down | amounts of cytokines released by cells treated with LPS (FIG. 9) ([3]; BMDCs treated with LPS for 16 hours, pretreated with peptide, supernatants analyzed for type I IFN using bioassay): significantly lower amounts of cytokines | release of cytokines including pro-inflammatory cytokines such as TNFalpha and IL-6 ([3]; pretreatment of cells with peptide, LPS (Example 3)): decrease in the release of cytokines
